One experiment relates to human osteoclasts (OCs). Put plainly: Inhibition of bone resorption by human osteoclasts cultured on cortical bone slices. The format is cell-based. As to conditions: for effective dose / concentration inhibiting bone resorption: human OCs on cortical bone slices, staining at day 21. As to the method: (§1) The inhibitory properties on CatK of inhibitors of this invention were tested in a biologically relevant setting: inhibition of bone resorption by osteoclasts (OCs). OCs are the cells that degrade the bone matrix by secretion of acid and CatK into the resorption lacunae, resulting in the cleavage of collagen type I. Inhibition of osteoclastic CatK was studied by culturing OCs on cortical bone slices in presence of inhibitors of this invention (FIG. 5). […] OCs predominantly form deep trenches (paths) while OCs lacking CatK form small pits (circular dots). B) CD14+ monocytes on bone slices were treated with MCSF (day 0) and RANKL (day 3) to stimulate differentiation to mature OCs. Medium containing either an inhibitor or DMSO was refreshed on day 7, 10, 13 and 16. At day 21, OCs were washed away and lysed, and bone slices were stained to visualize bone resorption. C) Bone resorption visualized by staining of resorption pits with Coomassie Brilliant Blue. More staining means more resorption pits, thus more bone resorption activity. Normal D) Schematic overview of pro-Cathepsin K activation. E) CatK activity and expression in OC lysates. […] Darker bands indicate more activity/expression of CatK.

Another experiment addresses T1, Cathepsin K (Homo sapiens, UniProt P43235).
T1 sequence (P43235 115-329): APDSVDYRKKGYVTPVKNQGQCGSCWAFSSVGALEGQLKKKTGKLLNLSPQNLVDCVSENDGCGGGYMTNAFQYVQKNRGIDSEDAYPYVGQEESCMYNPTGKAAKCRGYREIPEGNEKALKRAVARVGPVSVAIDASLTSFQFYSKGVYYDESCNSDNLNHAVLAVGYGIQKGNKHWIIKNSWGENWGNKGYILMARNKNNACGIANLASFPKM
Briefly: LC-MS of intact CatK and CatK-inhibitor complexes. The format is binding. The note with it: for formation of covalent CatK-inhibitor complex: 6 h incubation, intact protein LC-MS; for Measured mass complex: CatK 3 μM, inhibitor 100 μM, 37° C., 6 h, deconvoluted ESI mass. Here is the method:
The masses were determined from deconvoluted electrospray ionization mass spectra of CatK complexes. FIG. 4A to FIG. 4E each provide the result for a sample. In each of these FIGS. 4A to 4E the first panel provides the UPLC chromatogram, the second panel provides the electrospray ionization mass spectrum, and the third panel provides the corresponding deconvoluted electrospray ionization mass spectrum (average isotopes) with an indication of the measured mass of the predominant species. FIG. 4A provides the results obtained for intact CatK. FIG. 4B provides the results obtained for CatK.
Cathepsin K (3 μM) in reaction buffer ([…]) was incubated with inhibitor (100 μM) at 37° C. for 6 hours prior to analysis. 1 μL injections of the sample were made onto a XEVO-G2XSQTOF#YEA928 UPLC-MS system with a Waters Acquity CM detector. Chromatographic separation was carried out on a ACQUITY UPLC® Protein BEH C4 Column over a 12 minute gradient elution of 2% to 100% acetonitrile in water (0.1% formic acid) at a flow rate of 0.500 mL/min. For the first 4 minutes the flow was diverted to the waste to avoid contamination of the MS with high concentrations of buffer components. After 4 minutes, the elution flow was ionized with an ESI ionization source and measured on a XEVO-G2XSQTOF. The results were analyzed using MassLynx V4.1. The total mass of the complex was obtained by deconvolution of electrospray ionization mass spectrum envelope (average isotopes) with the MaxEnt1 function.
Cathepsin K was incubated with ODN, 4, 5 or 6 for 6 h to allow full covalent bond formation and submitted for measurement without any digestion steps, according to the method for LC-MS for intact CatK and CatK-inhibitor complexes described in the assays section above.

Another experiment deals with hCatS (Homo sapiens, UniProt P25774). Put plainly: In vitro inhibition of purified human Cathepsin S (Z-FVR-AMC). The format is biochemical. As to conditions: 30 min incubation with inhibitor, mean ± SD, triplicate. Here is the method:
(§2) Cathepsin (e.g. Cathepsin K/L/V/S/B), in particular purified human Cathepsin, was diluted in freshly prepared reaction buffer consisting of 50 mM MES pH 5.5, 25 mM EDTA and 2.5 mM DTT. 0.05% Tween20 (v/v) may be added to the reaction buffer of the Cathepsin K.
(§3) Activity assays may be conducted in a suitable manner. In the experiments described herein, the assays were typically conducted in Corning 3820 Low Volume 384 Well Assay Plate with a final assay volume of 20 μL. Plates were shaken at 600 rpm for 1 minute and centrifuged at 1000 rpm for 1 minute prior to incubation. Cathepsin activity was quantified using synthetic fluorogenic peptide substrate Z-FR-AMC (Cath K, L, V), Z-RR-AMC (Cath B) or Z-FVR-AMC (Cath S). Fluorescence intensity (λex=350 nm, λem=440 nm) was measured every 2 minutes in arbitrary units (A.U.) on a CLARIOstar (BMG Labtech) microplate reader and values were converted to product formation [AMC]. […] Measurements were performed in triplicate.
(§4) Inhibitors (200 nL, 100× final concentration in DMSO) were diluted in reaction buffer (10 μL). Purified human Cathepsin (5 μL, 4× final concentration) was added and the reaction mixture was incubated for 30 min at room temperature. Fluorogenic substrate (5 μL, 4× final concentration) was added and fluorescence intensity was measured every 2 minutes for 30-90 minutes.
(§5) The potency of the compounds as CatK inhibitors was assessed in an in vitro inhibition assay on purified human CatK (Table 2). Cathepsin was incubated with inhibitor, and the hydrolysis of substrate was initiated by addition of substrate.

The target of another experiment is hCatB (Homo sapiens, UniProt P07858). Put plainly: In vitro inhibition of purified human Cathepsin B (Z-RR-AMC). The format is biochemical. The note with it: 30 min incubation with inhibitor, mean ± SD, triplicate. As to the method:
as §2
(§6) Activity assays may be conducted in a suitable manner. […] Plates were shaken at 600 rpm for 1 minute and centrifuged at 1000 rpm for 1 minute prior to incubation. Cathepsin activity was quantified using synthetic fluorogenic peptide substrate Z-FR-AMC (Cath K, L, V), Z-RR-AMC (Cath B) or Z-FVR-AMC (Cath S). Fluorescence intensity (λex=350 nm, λem=440 nm) was measured every 2 minutes in arbitrary units (A.U.) on a CLARIOstar (BMG Labtech) microplate reader and values were converted to product formation [AMC]. […] Measurements were performed in triplicate.
as §4, §5

The target in the next experiment is hCatL (Homo sapiens, UniProt P07711). Put plainly: In vitro inhibition of purified human Cathepsin L (Z-FR-AMC). The format is biochemical. The note with it: 30 min incubation with inhibitor, mean ± SD, triplicate. Here is the method: as §2, §6, §4, §5
The next experiment addresses T2, hCatK (Homo sapiens, UniProt P43235).
T2 sequence (P43235 115-329): T1 sequence (P43235 115-329)
Put plainly: In vitro inhibition of purified human Cathepsin K (fluorogenic substrate Z-FR-AMC). The format is biochemical. As to conditions: for selectivity for CatK over structurally related human Cathepsins: in words, from Table 2; for IC50: purified human Cathepsin, 30 min incubation with inhibitor, mean ± SD, triplicate. As to the method:
as §2, §3, §4, §5

The next experiment concerns the target T3, CatK (Homo sapiens, UniProt P43235).
T3 sequence (P43235 115-329): T1 sequence (P43235 115-329)
Put plainly: CatK activity (probe BMV109) and CatK expression (Western blot) in OC lysates. The format is cell-based. The note with it: for mature CatK in OCs (Western blotting): OCs treated with inhibitor. On the set-up: endogenous in cells; host or cells: human osteoclasts differentiated from CD14+ monocytes on cortical bone slices. As to the method:
as §1
OC lysates were treated with activity-based irreversible Cathepsin probe BMV109 to assess whether the observed inhibition of bone resorption could be correlated with CatK activity (FIG. 5E).

The next experiment concerns the target hCatV (Homo sapiens, UniProt O60911). Briefly: In vitro inhibition of purified human Cathepsin V (Z-FR-AMC). The format is biochemical. As to conditions: 30 min incubation with inhibitor, mean ± SD, triplicate. Here is the method: as §2, §6, §4, §5
[1] abbreviates: samples treated with high concentrations.

We go through 3 molecules from patent publication US12371400B2, “Cathepsin inhibitors” (ACADEMISCH ZIEKENHUIS LEIDEN (H.O.D.N. LUMC), priority 2017, dated 2025).

Broadly, the IC50 is the midpoint of a concentration-inhibition curve. A lower IC50 goes with greater potency.

“Also recorded” adds a separate entry of the source.

Chain of hCatV (O60911 114-334): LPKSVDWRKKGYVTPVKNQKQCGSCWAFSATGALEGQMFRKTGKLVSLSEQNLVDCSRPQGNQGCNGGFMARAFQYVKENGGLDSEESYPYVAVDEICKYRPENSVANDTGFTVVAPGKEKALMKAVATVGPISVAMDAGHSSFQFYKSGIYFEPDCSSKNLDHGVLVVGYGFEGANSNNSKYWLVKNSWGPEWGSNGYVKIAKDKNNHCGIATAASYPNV
Chain of hCatL (P07711 114-333): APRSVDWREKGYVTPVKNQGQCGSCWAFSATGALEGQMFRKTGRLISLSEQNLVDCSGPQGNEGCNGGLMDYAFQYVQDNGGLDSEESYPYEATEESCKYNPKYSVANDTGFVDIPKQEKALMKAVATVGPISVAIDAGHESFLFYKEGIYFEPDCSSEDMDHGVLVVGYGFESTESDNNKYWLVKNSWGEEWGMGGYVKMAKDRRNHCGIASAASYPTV
Chain of hCatS (P25774 115-331): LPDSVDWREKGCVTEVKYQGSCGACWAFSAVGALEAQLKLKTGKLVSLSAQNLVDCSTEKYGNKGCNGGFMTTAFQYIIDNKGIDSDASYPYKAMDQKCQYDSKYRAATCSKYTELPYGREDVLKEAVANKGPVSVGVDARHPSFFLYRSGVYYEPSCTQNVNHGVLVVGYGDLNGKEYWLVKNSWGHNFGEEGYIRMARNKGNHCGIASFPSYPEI

In the case of `C#CC(C)NC(=O)[C@H](CC(C)(C)F)N[C@@H](c1ccc(-c2ccc(S(C)(=O)=O)cc2)cc1)C(F)(F)F` (mixture of isomers) [Compound 5, (S)—N—((R/S)-but-3-yn-2-yl)-4-fluoro-4-methyl-2-(((S)-2,2,2-trifluoro-1-(4′-(methylsulfonyl)-[1,1′-biphenyl]-4-yl)ethyl)amino)pentanamide], the “inhibition of bone resorption” value with human osteoclasts (OCs) (all tested concentrations) was “non-conclusive”. Also, the “formation of covalent CatK-inhibitor complex” value on Cathepsin K was “formation of a covalent hCatK—inhibitor complex; also recorded: covalent complex formed”. Besides, on Cathepsin K, the Measured mass complex is on record as 24231. The IC50 is 15.9 ± 1.84 µM on hCatS; 39.7 ± 4.34 µM against hCatB; more than 100 µM against hCatL; 0.346 ± 0.0116 µM against hCatK; 45.9 ± 2.33 µM against hCatV. Further, the “selectivity for CatK over structurally related human Cathepsins” value at hCatK is “conserved”. Further, the “mature CatK in OCs (Western blotting)” value at CatK is reported as “mature CatK is present”. The “CatK activity in OC lysates (probe BMV109)” value (“CatK activity in OC lysates” for short) at CatK (setting [1]) was “full inhibition of CatK activity”.

Regarding `CC(C)(F)C[C@H](N[C@@H](c1ccc(-c2ccc(S(C)(=O)=O)cc2)cc1)C(F)(F)F)C(=O)NC1(C#N)CC1` [ODN, (S)—N-(1-cyanocyclopropyl)-4-fluoro-4-methyl-2-(((S)-2,2,2-trifluoro-1-(4′-(methylsulfonyl)-[1,1′-biphenyl]-4-yl)ethyl)amino)pentanamide, reference compound], the “bone resorption staining of bone slices” value in the experiment on human osteoclasts (OCs) (3 nM) is “formation of deep trenches”; in the experiment with human osteoclasts (OCs) (15 nM), “formation of shallow pits”. Also, in the experiment on human osteoclasts (OCs), the “effective dose / concentration inhibiting bone resorption” value is “around 15 nM”. For the same molecule, at Cathepsin K, the “formation of covalent CatK-inhibitor complex” value was “covalent complex formed”. Further, on Cathepsin K, the Measured mass complex came out at 24244. Also, the IC50 was found to be 0.0243 ± 0.000569 µM on hCatS; 0.0626 ± 0.0025 µM on hCatB; 5.35 ± 0.596 µM against hCatL; 0.00056 ± 2e-06 µM on hCatK; 0.605 ± 0.0401 µM on hCatV. Besides, on CatK (all samples treated), the “CatK activity in OC lysates” value is “strong increase of mature CatK activity”.

`C#CCNC(=O)[C@H](CC(C)(C)F)N[C@@H](c1ccc(-c2ccc(S(C)(=O)=O)cc2)cc1)C(F)(F)F` [Compound 4, (S)-4-fluoro-4-methyl-N-(prop-2-yn-1-yl)-2-(((S)-2,2,2-trifluoro-1-(4′-(methylsulfonyl)-[1,1′-biphenyl]-4-yl)ethyl)amino)pentanamide]: the “effective dose / concentration inhibiting bone resorption” value in the experiment on human osteoclasts (OCs) is listed as not below 80 nM. In addition, the “formation of covalent CatK-inhibitor complex” value on Cathepsin K is on record as “formation of a covalent hCatK—inhibitor complex; also recorded: covalent complex formed”. The molecule also gave a Measured mass complex on Cathepsin K of 24217. Moreover, the IC50 against hCatS is 10.7 ± 0.842 µM; at hCatB it was 9.39 ± 0.628 µM; on hCatL it was more than 100 µM; at hCatK, 0.293 ± 0.00873 µM; against hCatV, 23.8 ± 1.41 µM. On hCatK, the “selectivity for CatK over structurally related human Cathepsins” value is “conserved”. Moreover, the “mature CatK in OCs (Western blotting)” value at CatK is “mature CatK is present”. In addition, the “CatK activity in OC lysates” value at CatK (setting [1]) is given as “full inhibition of CatK activity”.
